Experimental data reported in ChEMBL document CHEMBL1139777, “Discovery of a highly potent series of oxazole-based phosphodiesterase 4 inhibitors” (Bioorg Med Chem Lett, 2007).
pIC50: −log10 of the molar value.

Experiments:
[1] = target: Dual 3',5'-cyclic-AMP and -GMP phosphodiesterase 11A (Homo sapiens, UniProt Q9HCR9); experiment: Inhibition of PDE11
[2] = target: T1, 3',5'-cyclic-AMP phosphodiesterase 4B (Homo sapiens, UniProt Q07343); experiment: Inhibition of PDE4B
[3] = target: cAMP and cAMP-inhibited cGMP 3',5'-cyclic phosphodiesterase 10A (Homo sapiens, UniProt Q9Y233); experiment: Inhibition of PDE10
[4] = Cmax in rat at 10 mg/kg, po; assay type: ADME, organism-based; set-up: dose 10 mg/kg, route oral; details: in vivo
Rattus norvegicus [5] = experiment: Antiinflammatory activity in po dosed rat lipopolysaccharide-induced pulmonary inflammation model assessed as inhibition of polymorphonuclear cells; assay type: functional
Homo sapiens [6] = species on record: Homo sapiens; experiment: Selectivity for PDE4B over PDE10
Homo sapiens [7] = species on record: Homo sapiens; experiment: Selectivity for PDE4B over PDE11
[8] = target: T1, 3',5'-cyclic-AMP phosphodiesterase 4B; experiment: Inhibition of PDE4B at 1 uM
Rattus norvegicus [9] = experiment: Antiinflammatory activity in rat lipopolysaccharide-induced pulmonary inflammation model assessed as inhibition of polymorphonuclear cells at 1 mg/kg, po; assay type: functional
Rattus norvegicus [10] = experiment: Antiinflammatory activity in rat lipopolysaccharide-induced pulmonary inflammation model assessed as inhibition of polymorphonuclear cells at 3 mg/kg, po; assay type: functional
Cynomolgus monkey = experiment: AUC in cynomolgus monkey at 30 mg/kg, po; assay type: ADME, organism-based, Macaca fascicularis, Plasma; set-up: dose 30 mg/kg, route oral; details: in vivo
[11] = Cmax in cynomolgus monkey at 30 mg/kg, po; assay type: ADME, organism-based, Macaca fascicularis; set-up: dose 30 mg/kg, route oral; details: in vivo

Chain of cAMP and cAMP-inhibited cGMP 3',5'-cyclic phosphodiesterase 10A (Q9Y233 whole entry): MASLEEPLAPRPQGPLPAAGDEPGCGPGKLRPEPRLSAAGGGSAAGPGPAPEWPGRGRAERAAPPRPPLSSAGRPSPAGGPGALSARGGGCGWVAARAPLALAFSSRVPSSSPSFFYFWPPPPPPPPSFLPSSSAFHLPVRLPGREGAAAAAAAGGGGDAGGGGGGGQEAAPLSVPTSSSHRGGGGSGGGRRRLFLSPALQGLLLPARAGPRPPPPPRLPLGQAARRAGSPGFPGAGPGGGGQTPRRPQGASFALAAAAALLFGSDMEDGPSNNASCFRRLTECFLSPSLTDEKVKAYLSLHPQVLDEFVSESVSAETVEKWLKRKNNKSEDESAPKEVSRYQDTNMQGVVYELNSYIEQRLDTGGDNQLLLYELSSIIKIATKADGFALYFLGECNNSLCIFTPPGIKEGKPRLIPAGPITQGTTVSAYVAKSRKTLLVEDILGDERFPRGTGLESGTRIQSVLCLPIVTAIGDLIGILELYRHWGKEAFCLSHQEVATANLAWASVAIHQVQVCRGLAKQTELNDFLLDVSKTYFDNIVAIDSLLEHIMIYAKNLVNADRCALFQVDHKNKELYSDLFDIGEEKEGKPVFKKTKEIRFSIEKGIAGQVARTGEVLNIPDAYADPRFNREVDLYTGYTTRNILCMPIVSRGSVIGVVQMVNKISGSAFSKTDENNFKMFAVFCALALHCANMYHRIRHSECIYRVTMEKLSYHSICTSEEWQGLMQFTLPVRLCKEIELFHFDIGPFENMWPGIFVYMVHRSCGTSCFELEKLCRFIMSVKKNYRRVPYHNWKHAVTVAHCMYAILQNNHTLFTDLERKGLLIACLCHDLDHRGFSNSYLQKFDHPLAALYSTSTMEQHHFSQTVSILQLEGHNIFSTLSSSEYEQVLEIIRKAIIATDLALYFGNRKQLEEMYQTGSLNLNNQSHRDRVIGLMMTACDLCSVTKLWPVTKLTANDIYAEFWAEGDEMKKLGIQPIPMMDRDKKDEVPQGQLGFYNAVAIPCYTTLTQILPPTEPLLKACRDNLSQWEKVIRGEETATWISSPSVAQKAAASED
Chain of Dual 3',5'-cyclic-AMP and -GMP phosphodiesterase 11A (Q9HCR9 whole entry): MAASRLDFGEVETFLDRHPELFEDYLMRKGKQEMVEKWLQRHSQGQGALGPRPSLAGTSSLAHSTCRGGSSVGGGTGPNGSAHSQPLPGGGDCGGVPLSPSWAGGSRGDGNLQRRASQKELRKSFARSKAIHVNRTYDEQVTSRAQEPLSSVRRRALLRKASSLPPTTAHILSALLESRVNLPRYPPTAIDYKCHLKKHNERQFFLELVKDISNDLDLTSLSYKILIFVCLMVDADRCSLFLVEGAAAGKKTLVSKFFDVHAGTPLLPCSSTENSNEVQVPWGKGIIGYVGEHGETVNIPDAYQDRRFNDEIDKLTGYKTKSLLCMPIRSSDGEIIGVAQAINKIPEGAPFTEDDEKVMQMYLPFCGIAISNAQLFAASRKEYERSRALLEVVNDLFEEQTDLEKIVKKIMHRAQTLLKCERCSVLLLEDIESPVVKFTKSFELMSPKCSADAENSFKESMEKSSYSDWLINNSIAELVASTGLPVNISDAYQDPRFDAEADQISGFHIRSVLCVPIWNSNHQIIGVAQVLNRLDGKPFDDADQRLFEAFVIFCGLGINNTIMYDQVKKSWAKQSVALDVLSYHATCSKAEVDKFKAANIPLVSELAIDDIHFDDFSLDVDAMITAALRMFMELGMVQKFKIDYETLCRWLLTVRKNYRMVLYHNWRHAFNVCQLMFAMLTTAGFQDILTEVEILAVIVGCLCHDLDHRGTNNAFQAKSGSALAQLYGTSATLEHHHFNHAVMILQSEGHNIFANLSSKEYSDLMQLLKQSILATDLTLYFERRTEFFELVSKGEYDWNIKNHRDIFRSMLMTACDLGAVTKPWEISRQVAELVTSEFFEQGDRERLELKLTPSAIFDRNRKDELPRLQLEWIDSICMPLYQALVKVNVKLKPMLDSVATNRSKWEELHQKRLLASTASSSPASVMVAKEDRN
T1 sequence (Q07343 whole entry): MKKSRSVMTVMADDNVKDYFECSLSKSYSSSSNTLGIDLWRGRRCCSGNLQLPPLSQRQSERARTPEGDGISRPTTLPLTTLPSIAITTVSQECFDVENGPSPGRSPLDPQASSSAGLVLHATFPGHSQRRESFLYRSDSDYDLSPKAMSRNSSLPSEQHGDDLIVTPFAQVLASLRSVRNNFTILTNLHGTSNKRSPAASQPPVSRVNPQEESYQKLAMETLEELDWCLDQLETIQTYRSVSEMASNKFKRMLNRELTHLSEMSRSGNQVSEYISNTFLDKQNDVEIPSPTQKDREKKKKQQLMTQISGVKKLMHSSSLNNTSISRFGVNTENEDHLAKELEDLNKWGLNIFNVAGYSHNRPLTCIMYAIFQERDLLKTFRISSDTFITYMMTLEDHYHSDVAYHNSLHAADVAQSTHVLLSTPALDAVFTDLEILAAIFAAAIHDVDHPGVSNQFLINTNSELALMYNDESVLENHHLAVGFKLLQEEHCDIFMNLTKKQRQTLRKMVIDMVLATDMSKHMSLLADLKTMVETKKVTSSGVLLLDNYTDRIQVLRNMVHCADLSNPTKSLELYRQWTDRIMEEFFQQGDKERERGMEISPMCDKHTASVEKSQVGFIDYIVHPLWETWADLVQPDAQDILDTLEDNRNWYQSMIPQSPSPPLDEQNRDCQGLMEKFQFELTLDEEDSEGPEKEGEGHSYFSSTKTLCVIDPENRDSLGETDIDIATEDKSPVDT

pIC50 [1] | pIC50 [2] | pIC50 [3] | Compound | also measured
 | 6.46 |  | COc1ccc(-c2nc(C)co2)c2ccc(C(F)(F)F)nc12 | 
 | 6.33 |  | COc1ccc(-c2nc(CO)c(C)o2)c2ccc(C(F)(F)F)nc12 | 
 | 6.41 |  | COc1ccc(-c2nc(C(=O)O)c(C)o2)c2ccc(C(F)(F)F)nc12 | 
 | 7.28 |  | COc1ccc(-c2nc(C(=O)O)c(CN)o2)c2ccc(C(F)(F)F)nc12 | 
 | 6.96 |  | CNC(=O)c1nc(-c2ccc(OC)c3nc(C(F)(F)F)ccc23)oc1CN | 
 | 6.33 |  | COc1ccc(-c2nc(CCl)c(C)o2)c2ccc(C(F)(F)F)nc12 | 
 | 7.10 |  | COc1ccc(-c2nc(CN)c(C)o2)c2ccc(C(F)(F)F)nc12 | 
 | 6.24 |  | CNCc1oc(-c2ccc(OC)c3nc(C(F)(F)F)ccc23)nc1C(N)=O | 
 | 7.12 |  | COc1ccc(-c2nc(CN)c(C(N)=O)o2)c2ccc(C(F)(F)F)nc12 | 
 | 6.51 |  | COc1ccc(-c2nc(C=O)c(C)o2)c2ccc(C(F)(F)F)nc12 | 
 | 7.21 |  | CCN(CC)C(=O)c1nc(-c2ccc(OC)c3nc(C(F)(F)F)ccc23)oc1CN | 
 | 7.06 |  | COc1ccc(-c2nc(C(N)=O)c(C)o2)c2ccc(C(F)(F)F)nc12 | 
5.12 | 7.62 | 5.55 | COc1ccc(-c2nc(C(N)=O)c(CN)o2)c2ccc(C(F)(F)F)nc12 | 

More lines, now with the values behind:

Compound | pIC50 [1] | pIC50 [2] | pIC50 [3] | also measured
COc1ccc(C(=O)Nc2c(Cl)c[n+]([O-])cc2Cl)c2ccc(C(F)(F)F)nc12 [SCH-351591] | < 5.00 | 7.22 | < 5.00 | 
COc1ccc(-c2nc(C(=O)N3CC[C@@H](NC(=O)OC(C)(C)C)C3)c(CN)o2)c2ccc(C(F)(F)F)nc12 | 6.09 | 8.85 | 6.89 | Cmax [4]: 610 nM; ED50 (Rattus norvegicus [5]): 0.2 mg/kg
COc1ccc(-c2nc(C(=O)N3CCC4(CC3)C(=O)NCN4c3ccccc3)c(CN)o2)c2ccc(C(F)(F)F)nc12 | 6.89 | 9.00 | 7.70 | Selectivity ratio (Homo sapiens [6]): 20; Selectivity ratio (Homo sapiens [7]): 130
CCN(CC)Cc1oc(-c2ccc(OC)c3nc(C(F)(F)F)ccc23)nc1C(N)=O |  |  |  | inhibition [8]: 21%
COc1ccc(-c2nc(C(=O)N3CCCC3)c(CN)o2)c2ccc(C(F)(F)F)nc12 |  | 7.77 |  | 
COc1cc(OC)nc(N2CCN(C(=O)c3nc(-c4ccc(OC)c5nc(C(F)(F)F)ccc45)oc3CN)CC2)n1 | 6.01 | 8.66 | 6.12 | Cmax [4]: 230 nM; ED50 (Rattus norvegicus [5]): 2 mg/kg
CO/N=C(\c1ccccn1)C1CCN(C(=O)c2nc(-c3ccc(OC)c4nc(C(F)(F)F)ccc34)oc2CN)CC1 | 5.82 | 8.80 | 6.92 | Cmax [4]: 610 nM; inhibition in vivo at 1 mg/kg (Rattus norvegicus [9]): 45%
COc1ccc(-c2nc(C(=O)N3CCN(C(=O)OC(C)(C)C)CC3)c(CN)o2)c2ccc(C(F)(F)F)nc12 | 6.22 | 8.37 | 5.96 | Cmax [4]: 1400 nM; inhibition in vivo at 3 mg/kg (Rattus norvegicus [10]): 56%
COc1ccc(-c2nc(C(N)=O)c(CN3CCCC3)o2)c2ccc(C(F)(F)F)nc12 |  |  |  | inhibition [8]: 31%
COc1ccc(-c2nc(C(=O)N3CCC3)c(CN)o2)c2ccc(C(F)(F)F)nc12 |  | 7.51 |  | 
COc1ccc(C(=O)Nc2c(Cl)cncc2Cl)c2ccc(C(F)(F)F)nc12 | 5.14 | 7.70 | < 5.00 | 
COc1ccc(-c2nc(C(N)=O)c(CN3CCCCC3)o2)c2ccc(C(F)(F)F)nc12 |  |  |  | inhibition [8]: 27%
COc1ccc(-c2nc(C(=O)N3CCN(C(=O)c4ccccn4)CC3)c(CN)o2)c2ccc(C(F)(F)F)nc12 | 5.68 | 9.00 | 5.72 | Selectivity ratio (Homo sapiens [6]): 1000; Cmax [4]: 730 nM; ED50 (Rattus norvegicus [5]): 0.6 mg/kg; Selectivity ratio (Homo sapiens [7]): 1000
COc1ccc(-c2nc(C(N)=O)c(CN(C)C)o2)c2ccc(C(F)(F)F)nc12 |  |  |  | inhibition [8]: 40%
COc1ccc(-c2nc(C(=O)N3CCN(C(=O)c4cc(C)[nH]n4)CC3)c(CN)o2)c2ccc(C(F)(F)F)nc12 | 6.00 | 9.30 | 5.82 | Selectivity ratio (Homo sapiens [6]): 1000; Selectivity ratio (Homo sapiens [7]): 1000
COc1ccc(-c2nc(C(=O)N3CCN(c4ncccn4)CC3)c(CN)o2)c2ccc(C(F)(F)F)nc12 | 5.70 | 7.72 | 6.37 | Cmax [4]: 9500 nM; AUC (Cynomolgus monkey): 130 µM·h; Cmax [11]: 13000 nM; inhibition in vivo at 3 mg/kg (Rattus norvegicus [10]): 64%
COc1ccc(-c2nc(C(N)=O)c(CNC3CCCC3)o2)c2ccc(C(F)(F)F)nc12 |  |  |  | inhibition [8]: 39%
COc1ccc(-c2nc(C(=O)N3CCC(O)(c4ccccc4)CC3)c(CN)o2)c2ccc(C(F)(F)F)nc12 | 6.30 | 8.70 | 6.22 | Cmax [4]: 170 nM; ED50 (Rattus norvegicus [5]): 2 mg/kg
COc1ccc(-c2nc(C(=O)N3CCCCC3)c(CN)o2)c2ccc(C(F)(F)F)nc12 |  | 7.31 |  | 
CCc1coc(-c2ccc(OC)c3nc(C(F)(F)F)ccc23)n1 |  | 6.17 |  | 
COc1ccc(-c2nc(C(=O)N3CCN(S(=O)(=O)N(C)C)CC3)c(CN)o2)c2ccc(C(F)(F)F)nc12 | 5.48 | 8.92 | 5.77 | Selectivity ratio (Homo sapiens [6]): 1000; Selectivity ratio (Homo sapiens [7]): 1000
